Laboratory results taken from patent publication EP3046573B1, “AMYLIN ANALOGUES” (Zealand Pharma A/S, priority 2013, dated 2015).
Numbered stars: 1 amine (or outer) side, 2 acyl side, 3 side chain; on linkers, the order of the positions; unused ones are H or OH. Bridge positions count the residues as written; N and C are the ends. Square brackets hold non-standard residues; d marks the D form. Peptide text beside a SMILES is read from it. * marks the point of attachment. C20 diacid = O=C(O)CCCCCCCCCCCCCCCCCCC(=O)*; γGlu = O=C(O)[C@H](CCC(=O)[*:2])N[*:1]; NMeI = CC[C@H](C)[C@H](NC)C(=O)O; Sar = CNCC(=O)O

target: T1, human calcitonin receptor (hCTR2) (Homo sapiens, UniProt P30988); experiment: hCTR2 assay: induction of cAMP (AlphaScreen cAMP Assay kit) in COS7 cells expressing hCTR2; type: cell-based
T1 construct: expressed in transfected cells
T1 sequence (P30988 25-474): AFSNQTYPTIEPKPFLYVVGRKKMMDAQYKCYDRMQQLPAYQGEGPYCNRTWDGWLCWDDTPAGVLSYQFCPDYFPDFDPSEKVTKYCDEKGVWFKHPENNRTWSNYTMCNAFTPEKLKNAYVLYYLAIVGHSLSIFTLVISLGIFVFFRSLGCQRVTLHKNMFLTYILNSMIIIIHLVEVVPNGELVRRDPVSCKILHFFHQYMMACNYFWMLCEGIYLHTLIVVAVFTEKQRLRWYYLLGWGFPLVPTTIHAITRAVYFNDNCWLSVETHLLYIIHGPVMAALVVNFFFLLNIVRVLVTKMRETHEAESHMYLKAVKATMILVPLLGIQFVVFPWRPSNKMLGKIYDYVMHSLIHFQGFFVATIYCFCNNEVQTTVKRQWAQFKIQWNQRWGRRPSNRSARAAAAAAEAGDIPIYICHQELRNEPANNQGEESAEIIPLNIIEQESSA
Excerpt: The cell line COS7, originating from African Green Monkey kidney fibroblast cells, was used for establishment of the stable cell lines described below. The COS7 cellular background was used due to it being RAMP naive, and as such it provides the best available system for testing of the monomeric hCTR and different heterodimeric amylin receptor subtypes functionally generated by introduction of the individual RAMPs.
A cell line expressing the human calcitonin receptor (hCTR2) was generated in the COS7 cellular background as stable clones. In brief, hCTR2 (GI: 4502547) was amplified by PCR using primers encoding terminal restriction sites for subcloning. The 5'-end primers additionally encoded a near Kozak consensus sequence to ensure efficient translation. The fidelity of the DNA encoding the receptor was confirmed by DNA sequencing. The PCR products encoding the receptor were subcloned into a mammalian expression vector containing a neomycin (G418) resistance marker. The mammalian expression vector encoding the receptor was transfected into COS7 cells by a standard liposome transfection method. 48 hours post-transfection, cells were seeded for limited dilution cloning and selected with 1 mg/ml G418 in the culture medium. After 3 weeks, surviving colonies of hCTR2-expressing cells were picked, propagated and tested in the amylin efficacy assay as described in Example 3 below. One hCTR2-expressing clone was chosen for compound profiling.
In vitro activity of test peptides at the hCTR2 and hAMYR3 receptors was assessed by measuring the induction of cAMP following stimulation of the receptor by pramlintide or peptides of the invention using the AlphaScreen® cAMP Assay kit from Perkin-Elmer.
Briefly, COS7 cells expressing hCTR2 (see Example 2, above) were seeded at 30-40,000 cells per well in 96-well microtiter plates coated with 0.01 % poly-L-lysine, and grown for 1 day in culture in 100 µl growth medium [DMEM, 10% FCS, Penicillin (100 IU/ml), Streptomycin (100 µg/ml)]. On the day of analysis, growth medium was removed and the cells were washed once with 200 µl Tyrode buffer [Tyrode's Salts (9.6 g/l), 10 mM HEPES, pH 7.4]. Cells were incubated in 100 µl Tyrode buffer containing increasing concentrations of test peptides, 100 µM IBMX and 0.1% casein for 15 min at 37° C. The reaction was stopped by carefully decanting off the compound/buffer medium and replacing it with lysis/detection buffer (80 µl 0.1 % w/v BSA, 5 mM HEPES, 0.3 % v/v Tween-20 in deionized water). After incubation at room temperature for 10 min., the cAMP content of the resulting cell lysate was estimated according to the AlphaScreen® cAMP Assay manufacturer's instructions. EC50 values and relative efficacy values (in %) compared to reference peptide (Pramlintide) were estimated by computer-aided curve fitting using the 4-parameter logistic (4PL) non-linear model.
The in vitro activity results (expressed as EC50 values) for peptides of the invention and for Pramlintide (reference peptide) are summarized in Table 2, below.

Structure (SMILES)	EC50
CC[C@H](C)[C@@H](C(=O)N[C@@H](CC(C)C)C(=O)N[C@@H](CO)C(=O)N[C@@H](CO)C(=O)N[C@H](C(=O)N[C@@H](CC(N)=O)C(=O)N[C@H](C(=O)NCC(=O)N[C@@H](CO)C(=O)N[C@@H](CC(N)=O)C(=O)N[C@H](C(=O)N1CCC[C@H]1C(N)=O)[C@@H](C)O)C(C)C)[C@@H](C)O)N(C)C(=O)[C@H](C)NC(=O)CN(C)C(=O)[C@H](Cc1ccccc1)NC(=O)[C@H](CC(N)=O)NC(=O)[C@H](CC(N)=O)NC(=O)[C@H](CO)NC(=O)[C@H](CO)NC(=O)[C@H](Cc1c[nH]cn1)NC(=O)[C@H](Cc1c[nH]cn1)NC(=O)[C@H](CC(C)C)NC(=O)[C@H](Cc1ccccc1)NC(=O)[C@H](CCC(=O)O)NC(=O)[C@@H](C)NC(=O)[C@H](CC(C)C)NC(=O)[C@H](CCCNC(=N)N)NC(=O)[C@H](CCC(N)=O)NC(=O)[C@@H](NC(=O)[C@H](C)NC(=O)[C@@H]1CSSC[C@H](NC(=O)[C@H](CCCNC(=N)N)NC(=O)CC[C@H](NC(=O)CCCCCCCCCCCCCCCCCCC(=O)O)C(=O)O)C(=O)N[C@@H]([C@@H](C)O)C(=O)N[C@@H](C)C(=O)N[C@@H]([C@@H](C)O)C(=O)N1)[C@@H](C)O [Compound 7, [19CD]-isoGlu-RC()TATC()ATQRL-DAla-EFLHHSSNNF-Gly(Me)-A-Ile(Me)-LSSTNVGSNTP-NH2] ({C20 diacid-γGlu}-RCTATCATQRL[dA]EFLHHSSNNF[Sar]A[NMeI]LSSTNVGSNTP-NH2; disulfide 2-6)	1.9 nM
CC[C@H](C)[C@@H](C(=O)N[C@@H](CC(C)C)C(=O)N[C@@H](CO)C(=O)N[C@@H](CO)C(=O)N[C@H](C(=O)N[C@@H](CC(N)=O)C(=O)N[C@H](C(=O)NCC(=O)N[C@@H](CO)C(=O)N[C@@H](CC(N)=O)C(=O)N[C@H](C(=O)N1CCC[C@H]1C(N)=O)[C@@H](C)O)C(C)C)[C@@H](C)O)N(C)C(=O)[C@H](C)NC(=O)CN(C)C(=O)[C@H](Cc1ccccc1)NC(=O)[C@H](CC(N)=O)NC(=O)[C@H](CC(N)=O)NC(=O)[C@H](CO)NC(=O)[C@H](CO)NC(=O)[C@H](Cc1c[nH]cn1)NC(=O)[C@H](Cc1c[nH]cn1)NC(=O)[C@H](CC(C)C)NC(=O)[C@H](Cc1ccccc1)NC(=O)[C@@H](CCC(=O)O)NC(=O)[C@H](C)NC(=O)[C@H](CC(C)C)NC(=O)[C@H](CCCNC(=N)N)NC(=O)[C@H](CCC(N)=O)NC(=O)[C@@H](NC(=O)[C@H](C)NC(=O)[C@@H]1CSSC[C@H](NC(=O)[C@H](CCCNC(=N)N)NC(=O)CC[C@H](NC(=O)CCCCCCCCCCCCCCCCCCC(=O)O)C(=O)O)C(=O)N[C@@H](CC(N)=O)C(=O)N[C@@H]([C@@H](C)O)C(=O)N[C@@H](C)C(=O)N[C@@H]([C@@H](C)O)C(=O)N1)[C@@H](C)O [Compound 8, [19CD]-isoGlu-RC()NTATC()ATQRLA-DGlu-FLHHSSNNF-Gly(Me)-A-Ile(Me)-LSSTNVGSNTP-NH2] ({C20 diacid-γGlu}-RCNTATCATQRLA[dE]FLHHSSNNF[Sar]A[NMeI]LSSTNVGSNTP-NH2; disulfide 2-7)	2.6 nM
CC[C@H](C)[C@@H](C(=O)N[C@@H](CC(C)C)C(=O)N[C@@H](CO)C(=O)N[C@@H](CO)C(=O)N[C@H](C(=O)N[C@@H](CC(N)=O)C(=O)N[C@H](C(=O)NCC(=O)N[C@@H](CO)C(=O)N[C@@H](CC(N)=O)C(=O)N[C@H](C(=O)N1CCC[C@H]1C(N)=O)[C@@H](C)O)C(C)C)[C@@H](C)O)N(C)C(=O)[C@H](C)NC(=O)CN(C)C(=O)[C@H](Cc1ccccc1)NC(=O)[C@H](CC(N)=O)NC(=O)[C@H](CC(N)=O)NC(=O)[C@H](CO)NC(=O)[C@H](CO)NC(=O)[C@H](Cc1c[nH]cn1)NC(=O)[C@H](Cc1c[nH]cn1)NC(=O)[C@H](CC(C)C)NC(=O)[C@@H](Cc1ccccc1)NC(=O)[C@H](CCC(=O)O)NC(=O)[C@H](C)NC(=O)[C@H](CC(C)C)NC(=O)[C@H](CCCNC(=N)N)NC(=O)[C@H](CCC(N)=O)NC(=O)[C@@H](NC(=O)[C@H](C)NC(=O)[C@@H]1CSSC[C@H](NC(=O)[C@H](CCCNC(=N)N)NC(=O)CC[C@H](NC(=O)CCCCCCCCCCCCCCCCCCC(=O)O)C(=O)O)C(=O)N[C@@H](CC(N)=O)C(=O)N[C@@H]([C@@H](C)O)C(=O)N[C@@H](C)C(=O)N[C@@H]([C@@H](C)O)C(=O)N1)[C@@H](C)O [Compound 9, [19CD]-isoGlu-RC()NTATC()ATQRLAE-DPhe-LHHSSNNF-Gly(Me)-A-Ile(Me)-LSSTNVGSNTP-NH2] ({C20 diacid-γGlu}-RCNTATCATQRLAE[dF]LHHSSNNF[Sar]A[NMeI]LSSTNVGSNTP-NH2; disulfide 2-7)	1.1 nM
CC[C@H](C)[C@@H](C(=O)N[C@@H](CC(C)C)C(=O)N[C@@H](CO)C(=O)N[C@@H](CO)C(=O)N[C@H](C(=O)N[C@@H](CC(N)=O)C(=O)N[C@H](C(=O)NCC(=O)N[C@@H](CO)C(=O)N[C@@H](CC(N)=O)C(=O)N[C@H](C(=O)N1CCC[C@H]1C(N)=O)[C@@H](C)O)C(C)C)[C@@H](C)O)N(C)C(=O)[C@H](C)NC(=O)CN(C)C(=O)[C@H](Cc1ccccc1)NC(=O)[C@H](CC(N)=O)NC(=O)[C@H](CC(N)=O)NC(=O)[C@H](CO)NC(=O)[C@H](CO)NC(=O)[C@H](Cc1c[nH]cn1)NC(=O)[C@@H](Cc1c[nH]cn1)NC(=O)[C@H](CC(C)C)NC(=O)[C@H](Cc1ccccc1)NC(=O)[C@H](CCC(=O)O)NC(=O)[C@H](C)NC(=O)[C@H](CC(C)C)NC(=O)[C@H](CCCNC(=N)N)NC(=O)[C@H](CCC(N)=O)NC(=O)[C@@H](NC(=O)[C@H](C)NC(=O)[C@@H]1CSSC[C@H](NC(=O)[C@H](CCCNC(=N)N)NC(=O)CC[C@H](NC(=O)CCCCCCCCCCCCCCCCCCC(=O)O)C(=O)O)C(=O)N[C@@H](CC(N)=O)C(=O)N[C@@H]([C@@H](C)O)C(=O)N[C@@H](C)C(=O)N[C@@H]([C@@H](C)O)C(=O)N1)[C@@H](C)O [Compound 11, [19CD]-isoGlu-RC()NTATC()ATQRLAEFL-DHis-HSSNNF-Gly(Me)-A-Ile(Me)-LSSTNVGSNTP-NH2] ({C20 diacid-γGlu}-RCNTATCATQRLAEFL[dH]HSSNNF[Sar]A[NMeI]LSSTNVGSNTP-NH2; disulfide 2-7)	2.3 nM
CC[C@H](C)[C@@H](C(=O)N[C@@H](CC(C)C)C(=O)N[C@@H](CO)C(=O)N[C@@H](CO)C(=O)N[C@H](C(=O)N[C@@H](CC(N)=O)C(=O)N[C@H](C(=O)NCC(=O)N[C@@H](CO)C(=O)N[C@@H](CC(N)=O)C(=O)N[C@H](C(=O)N1CCC[C@H]1C(N)=O)[C@@H](C)O)C(C)C)[C@@H](C)O)N(C)C(=O)[C@H](C)NC(=O)CN(C)C(=O)[C@H](Cc1ccccc1)NC(=O)[C@H](CC(N)=O)NC(=O)[C@H](CC(N)=O)NC(=O)[C@H](CO)NC(=O)[C@H](CO)NC(=O)[C@@H](Cc1c[nH]cn1)NC(=O)[C@H](Cc1c[nH]cn1)NC(=O)[C@H](CC(C)C)NC(=O)[C@H](Cc1ccccc1)NC(=O)[C@H](CCC(=O)O)NC(=O)[C@H](C)NC(=O)[C@H](CC(C)C)NC(=O)[C@H](CCCNC(=N)N)NC(=O)[C@H](CCC(N)=O)NC(=O)[C@@H](NC(=O)[C@H](C)NC(=O)[C@@H]1CSSC[C@H](NC(=O)[C@H](CCCNC(=N)N)NC(=O)CC[C@H](NC(=O)CCCCCCCCCCCCCCCCCCC(=O)O)C(=O)O)C(=O)N[C@@H](CC(N)=O)C(=O)N[C@@H]([C@@H](C)O)C(=O)N[C@@H](C)C(=O)N[C@@H]([C@@H](C)O)C(=O)N1)[C@@H](C)O [Compound 12, [19CD]-isoGlu-RC()NTATC()ATQRLAEFLH-DHis-SSNNF-Gly(Me)-A-Ile(Me)-LSSTNVGSNTP-NH2] ({C20 diacid-γGlu}-RCNTATCATQRLAEFLH[dH]SSNNF[Sar]A[NMeI]LSSTNVGSNTP-NH2; disulfide 2-7)	0.088 nM
